Results on 64 compounds are retold here after patent US8877741B2, “Pyrrolidine derivatives, pharmaceutical compositions and uses thereof” (Boehringer Ingelheim International GmbH, priority 2013, dated 2014).

The target in the experiment is human ACC2 (Homo sapiens (Human), UniProt O00763). Description: ACC2 assay, spectrophotometric 384 well assay (NADH-linked kinetic method). The format is biochemical. The conditions noted are these: human ACC2 construct lacking the 128 N-terminal amino acids; coupled lactate dehydrogenase/pyruvate kinase reaction, 340 nm, 25° C. In outline:
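ADP formation was monitored as NADH consumption at 340 nm for 15 min at 25 °C, using baculovirus-expressed human ACC2 missing its first 128 amino acids, with 500 μM ATP and 2000 μM each of acetyl-CoA and NADH (final). IC50 was fitted by non-linear regression on low-control-subtracted slopes.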

Sequence of human ACC2 (O00763 129-2458): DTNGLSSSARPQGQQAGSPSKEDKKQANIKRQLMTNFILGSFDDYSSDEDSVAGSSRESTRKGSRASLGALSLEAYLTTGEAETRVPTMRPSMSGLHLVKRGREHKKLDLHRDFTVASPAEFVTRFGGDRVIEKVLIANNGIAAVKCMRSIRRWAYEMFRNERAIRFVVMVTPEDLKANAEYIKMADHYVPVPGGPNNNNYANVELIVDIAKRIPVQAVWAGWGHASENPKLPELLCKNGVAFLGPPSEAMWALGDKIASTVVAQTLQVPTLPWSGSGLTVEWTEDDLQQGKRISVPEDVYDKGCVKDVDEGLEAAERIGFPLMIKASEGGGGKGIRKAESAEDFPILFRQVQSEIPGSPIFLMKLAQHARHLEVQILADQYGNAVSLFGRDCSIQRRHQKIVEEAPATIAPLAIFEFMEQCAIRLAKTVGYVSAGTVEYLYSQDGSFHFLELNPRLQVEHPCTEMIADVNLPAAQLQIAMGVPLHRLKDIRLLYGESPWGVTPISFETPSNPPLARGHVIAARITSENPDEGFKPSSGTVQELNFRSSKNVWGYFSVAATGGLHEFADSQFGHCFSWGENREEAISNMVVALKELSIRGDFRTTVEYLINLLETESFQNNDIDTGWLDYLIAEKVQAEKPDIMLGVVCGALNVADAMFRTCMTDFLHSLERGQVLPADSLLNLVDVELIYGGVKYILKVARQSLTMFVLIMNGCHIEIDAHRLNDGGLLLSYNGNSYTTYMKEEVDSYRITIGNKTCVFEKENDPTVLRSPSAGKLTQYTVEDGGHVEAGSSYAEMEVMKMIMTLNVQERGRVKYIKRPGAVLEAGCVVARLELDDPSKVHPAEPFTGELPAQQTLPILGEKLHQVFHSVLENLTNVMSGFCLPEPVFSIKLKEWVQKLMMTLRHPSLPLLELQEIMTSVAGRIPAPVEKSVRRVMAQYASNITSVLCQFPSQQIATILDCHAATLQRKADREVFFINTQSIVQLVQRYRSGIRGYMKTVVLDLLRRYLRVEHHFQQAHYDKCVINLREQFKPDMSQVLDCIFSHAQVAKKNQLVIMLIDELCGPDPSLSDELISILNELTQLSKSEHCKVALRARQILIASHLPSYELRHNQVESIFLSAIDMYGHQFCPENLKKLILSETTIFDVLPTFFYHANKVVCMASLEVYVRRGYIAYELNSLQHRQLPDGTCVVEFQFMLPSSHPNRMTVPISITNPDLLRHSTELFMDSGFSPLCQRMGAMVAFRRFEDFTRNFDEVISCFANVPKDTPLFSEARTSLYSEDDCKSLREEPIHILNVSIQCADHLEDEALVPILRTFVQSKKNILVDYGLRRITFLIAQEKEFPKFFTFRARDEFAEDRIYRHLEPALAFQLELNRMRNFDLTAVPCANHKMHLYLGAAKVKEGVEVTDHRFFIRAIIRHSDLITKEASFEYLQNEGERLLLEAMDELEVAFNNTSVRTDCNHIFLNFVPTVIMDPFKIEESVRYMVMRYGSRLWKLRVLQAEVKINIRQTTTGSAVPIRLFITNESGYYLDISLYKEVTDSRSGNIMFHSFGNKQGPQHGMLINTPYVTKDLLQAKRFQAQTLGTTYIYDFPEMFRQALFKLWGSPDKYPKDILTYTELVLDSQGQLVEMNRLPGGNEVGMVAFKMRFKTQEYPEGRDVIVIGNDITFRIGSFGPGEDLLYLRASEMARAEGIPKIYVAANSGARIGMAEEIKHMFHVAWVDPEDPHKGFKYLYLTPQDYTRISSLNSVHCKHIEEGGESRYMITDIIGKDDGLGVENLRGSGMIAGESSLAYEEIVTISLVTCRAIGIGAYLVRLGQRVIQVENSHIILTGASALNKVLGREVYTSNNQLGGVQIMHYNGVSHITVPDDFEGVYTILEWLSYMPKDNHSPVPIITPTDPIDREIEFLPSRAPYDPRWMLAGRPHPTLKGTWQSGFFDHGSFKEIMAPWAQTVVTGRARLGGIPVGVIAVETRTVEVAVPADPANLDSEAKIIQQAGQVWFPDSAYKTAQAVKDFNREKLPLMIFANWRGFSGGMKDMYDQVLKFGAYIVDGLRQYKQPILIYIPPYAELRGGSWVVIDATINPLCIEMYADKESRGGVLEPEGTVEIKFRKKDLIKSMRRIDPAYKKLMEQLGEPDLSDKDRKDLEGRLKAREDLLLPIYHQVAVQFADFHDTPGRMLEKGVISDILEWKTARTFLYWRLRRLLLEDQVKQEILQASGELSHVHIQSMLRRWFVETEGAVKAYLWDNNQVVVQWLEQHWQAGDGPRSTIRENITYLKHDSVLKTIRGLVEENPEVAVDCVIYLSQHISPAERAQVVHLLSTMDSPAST

`C[C@H](NC(=O)c1ccnnc1)c1ccc(OC2CCN(c3ccnc(OCC4CC4)c3)C2)cc1` (stereo partly shown) [Example 2.88] registered an IC50 of 278 nM. That is a sub-micromolar value.

`CC(=O)N[C@@H](C)c1ccc(OC2CN(c3ccc(OCC4CC4(F)F)cn3)C[C@H]2F)cc1` (stereo partly shown) [Example 1.94] yielded an IC50 of 94 nM. Against the preceding compound, the IC50 is about 3-fold lower.

`CC(C)Oc1cc(N2CCC(Oc3ccc([C@H](C)NC(=O)C(C)F)cc3)C2)ccn1` (stereo partly shown) [Example 2.13] had an IC50 of 798 nM. This IC50 is about 8.5-fold higher than that of the compound before.

For the compound `CC(=O)N[C@@H](C)c1ccc(OC2CCN(c3ccnc(OC(C)C)c3)C2)cc1` (stereo partly shown) [Example 1.3], the IC50 is 134 nM.

In turn, `CCCOc1nccc(N2CC[C@@H](Oc3ccc([C@H](C)NC(C)=O)cc3)C2)c1OC` [Example 1.121] gave an IC50 of 41 nM.

Take `CC(C)COc1cc(N2CC[C@@H](Oc3ccc([C@H](C)NC(=O)C4CC4)cc3)C2)ccn1` [Example 9.36]: the IC50 stood at 209 nM.

`C[C@H](NC(=O)N(C)C)c1ccc(OC2CCN(c3ccnc(N4CCC(F)(F)C4)c3F)C2)cc1` (stereo partly shown) [Example 3.22] yielded an IC50 of 50 nM.

`C[C@H](NC(=O)N1CCOCC1)c1ccc(OC2CCN(c3ccnc(N4CCC(F)(F)C4)c3F)C2)cc1` (stereo partly shown) [Example 3.23] yielded an IC50 of 205 nM.

For `C[C@H](NC(=O)c1cn[nH]c1)c1ccc(OC2CCN(c3ccc(OCC4CC4(F)F)cn3)C2)cc1` (stereo partly shown) [Example 2.34], the 50% inhibitory concentration (IC50) amounted to 69 nM.

For `CC[C@H](C)Oc1cc(N2CC[C@@H](Oc3ccc([C@H](C)NC(C)=O)cc3)C2)ccn1` [Example 9.27], the IC50 is 55 nM.

Regarding `CC(=O)N[C@@H](C)c1ccc(O[C@@H]2CCN(c3ccnc(OCC4CCOC4)c3)C2)cc1` (stereo partly shown) [Example 9.26], the IC50 was 125 nM.

Take `CC(=O)N[C@@H](C)c1ccc(OC2CCN(c3cc(OCC4CC4(F)F)ncc3F)C2)cc1` (stereo partly shown) [Example 1.76]: the IC50 worked out at 63 nM.

As to `CC(=O)N[C@@H](C)c1ccc(OC2CCN(c3ncc(OC4CCCC4)cc3F)C2)cc1` (stereo partly shown) [Example 1.32], the 50% inhibitory concentration (IC50) is 50 nM.

For `CC(=O)N[C@@H](C)c1ccc(O[C@@H]2CCN(c3ccc(OCC4CC4)cn3)C2)cc1` [Example 1.96], the half-maximal inhibitory concentration (IC50) is 114 nM.

In turn, `CC(=O)N[C@@H](C)c1ccc(OC2CCN(c3ncc(OC4CCC4)cc3F)C2)cc1` (stereo partly shown) [Example 1.20] showed an IC50 of 65 nM.

As for `CC(=O)N[C@@H](C)c1ccc(OC2CCN(c3cc(OCC4CC4)ncc3F)C2)cc1` (stereo partly shown) [Example 1.73], the IC50 came out at 59 nM.

The compound `CCOc1cc(N2CCC(Oc3ccc([C@H](C)NC(C)=O)cc3)C2)ccn1` (stereo partly shown) [Example 1.12] gave a 50% inhibitory concentration (IC50) of 265 nM.

Regarding `Cc1cnc(OCC2CC2)cc1N1CCC(Oc2ccc([C@H](C)NC(=O)N(C)C)cc2)C1` (stereo partly shown) [Example 1.56], the IC50 came out at 585 nM. This IC50 lies about 2.2-fold higher than the previous one.

On to `C[C@H](NC(=O)c1ccno1)c1ccc(OC2CCN(c3ccnc(OCC(F)F)c3)C2)cc1` (stereo partly shown) [Example 2.107], for which the IC50 turned out to be 389 nM.

`C[C@H](NC(=O)[C@@H](C)O)c1ccc(OC2CCN(c3ccnc(OCC4CC4)c3)C2)cc1` (stereo partly shown) [Example 2.78] registered a half-maximal inhibitory concentration (IC50) of 799 nM.

In the case of `COC[C@@H]1CCCN1c1cccc(N2CC[C@@H](Oc3ccc([C@H](C)NC(C)=O)cc3)C2)n1` [Example 10.46], the IC50 stood at 175 nM.

`Cc1nocc1C(=O)N[C@@H](C)c1ccc(OC2CCN(c3ccnc(OC(C)C)c3)C2)cc1` (stereo partly shown) [Example 2.5] gave an IC50 of 70 nM.

In turn, `C[C@H](NC(=O)[C@@H](C)O)c1ccc(OC2CCN(c3ccnc(OCC4CC4)c3)C2)cc1` (stereo partly shown) [Example 2.68] had an IC50 of 265 nM.

`CC(=O)N[C@@H](C)c1ccc(O[C@@H]2CCN(c3ccc(OCCCF)cn3)C2)cc1` [Example 11.3] had an IC50 of 131 nM.

For the compound `COc1c(N2CC[C@@H](Oc3ccc([C@H](C)NC(C)=O)cc3)C2)ccnc1OCC(C)C` [Example 1.120], the IC50 worked out at 32 nM.

On to `CCCOc1ccc(N2CCC(Oc3ccc([C@H](C)NC(C)=O)cc3)C2)cn1` (stereo partly shown) [Example 1.4], for which it took 193 nM to reach half-maximal inhibition (IC50).

On to `CC#CCCOc1cc(N2CC[C@@H](Oc3ccc([C@H](C)NC(C)=O)cc3)C2)ccn1` [Example 9.5], for which the IC50 turned out to be 390 nM. This IC50 lies about 2-fold higher than the previous one.

In turn, `CC(=O)N[C@@H](C)c1ccc(O[C@@H]2CCN(c3ccnc(OCC(C)(C)C)c3)C2)cc1` [Example 9.29] displayed an IC50 of 30 nM. Against the preceding compound, the IC50 is about 13-fold lower.

In turn, `CC(=O)N[C@@H](C)c1ccc(O[C@@H]2CCN(c3ccnc(OC4CCOCC4)c3)C2)cc1` [Example 9.22] registered a 50% inhibitory concentration (IC50) of 140 nM.

On to `CC(=O)N[C@@H](C)c1ccc(O[C@@H]2CCN(c3ccnc(N4CCCC4)c3F)C2)cc1` [Example 10.16], for which the IC50 stood at 35 nM.

In the case of `CC(=O)N[C@@H](C)c1ccc(O[C@@H]2CCN(c3ccnc(OCC(F)F)c3OCC(F)F)C2)cc1` [Example 9.66], the half-inhibitory concentration (IC50) was 615 nM.

In the case of `C[C@H](NC(=O)CCC#N)c1ccc(OC2CCN(c3cccc(C(F)(F)F)n3)C2)cc1` (stereo partly shown) [Example 2.42], the IC50 turned out to be 675 nM. This IC50 and that of the compound before are within 1.5-fold of each other.

`CCNc1cccc(N2CC[C@@H](Oc3ccc([C@H](C)NC(C)=O)cc3)C2)n1` [Example 10.12]: the IC50 was determined as 691 nM.

`COc1cc(N2CC[C@@H](Oc3ccc([C@H](C)NC(C)=O)cc3)C2)cnc1OCC1CC1` [Example 1.122] registered a half-inhibitory concentration (IC50) of 2710 nM. Compared with the last compound, the IC50 is about 3.9-fold higher.

As to `CCNC(=O)N[C@@H](C)c1ccc(OC2CCN(c3ccnc(OCC(F)F)c3)C2)cc1` (stereo partly shown) [Example 3.16], the IC50 came out at 313 nM.

Take `C[C@H](NC(=O)Nc1ccon1)c1ccc(O[C@@H]2CCN(c3ccc(OCC4CC4(F)F)cn3)C2)cc1` (stereo partly drawn) [Example 3.1, 1-((1S)-1-(4-((3R)-1-(5-((2,2-Difluorocyclopropyl)methoxy)pyridin-2-yl)pyrrolidin-3-yloxy)phenyl)ethyl)-3-(isoxazol-3-yl)urea]: the IC50 was determined as 81 nM.

Turning to `C[C@H](NC(=O)c1ccon1)c1ccc(OC2CCN(c3ccnc(OCC4CC4)c3)C2)cc1` (stereo partly shown) [Example 2.70], the IC50 came out at 99 nM.

Compound `C[C@H](NC(=O)C1CC1)c1ccc(O[C@@H]2CCN(c3ccnc(OCC(F)F)c3)C2)cc1` [Example 9.42] registered an IC50 of 402 nM.

With `CC(=O)N[C@@H](C)c1ccc(O[C@@H]2CCN(c3cccc(N(C)CC(F)F)n3)C2)cc1` [Example 1.133], the IC50 was 246 nM.

`CCCN(C)c1nccc(N2CC[C@@H](Oc3ccc([C@H](C)NC(C)=O)cc3)C2)c1OC` [Example 1.129]: half-maximal inhibition (IC50) required 210 nM.

As to `C[C@H](NC(=O)C1(C)CC1)c1ccc(OC2CCN(c3ccnc(N4CCC(F)(F)C4)c3F)C2)cc1` (stereo partly shown) [Example 2.124], inhibition was half-maximal at 72 nM (IC50).

In turn, `CC(=O)N[C@@H](C)c1ccc(O[C@@H]2CCN(c3ccnc(NCC4(O)CCC4)c3F)C2)cc1` [Example 10.50] showed a half-inhibitory concentration (IC50) of 53 nM.

On to `C[C@H](NC(=O)C(F)F)c1ccc(OC2CCN(c3cccc(C(F)(F)F)n3)C2)cc1` (stereo partly shown) [Example 2.32], for which the IC50 turned out to be 120 nM.

In the case of `CCCNc1nccc(N2CCC(Oc3ccc([C@H](C)NC(=O)N(C)C)cc3)C2)c1F` (stereo partly shown) [Example 5.6], the IC50 came to 36 nM. Compared with the last compound, the IC50 is about 3.3-fold lower.

On to `CC(=O)N[C@@H](C)c1ccc(O[C@@H]2CCN(c3cccc(N4CCCCC4)n3)C2)cc1` [Example 10.4], for which the midpoint of inhibition, the IC50, lay at 261 nM.

`CC(=O)N[C@@H](C)c1ccc(OC2CCN(c3cccc(C4CCCC4)n3)C2)cc1` (stereo partly shown) [Example 1.84] came in with a concentration for half-maximal inhibition (IC50) of 115 nM.

For the compound `C[C@H](NC(=O)C(C)(F)F)c1ccc(OC2CCN(c3cccc(C(F)(F)F)n3)C2)cc1` (stereo partly shown) [Example 2.63], the midpoint of inhibition, the IC50, lay at 204 nM.

With `CC(C)Oc1cc(N2CCC(Oc3ccc([C@H](C)NC(=O)C(C)(F)F)cc3)C2)ccn1` (stereo partly shown) [Example 2.29], the IC50 is 267 nM.

The compound `CCOc1nccc(N2CC[C@@H](Oc3ccc([C@H](C)NC(C)=O)cc3)C2)c1OC` [Example 1.95] came in with an IC50 of 82 nM.

In turn, `CCN(C)C(=O)N[C@@H](C)c1ccc(OC2CCN(c3ccc(OCC4CC4(F)F)cn3)C2)cc1` (stereo partly shown) [Example 3.8] yielded an IC50 of 90 nM. This IC50 and that of the compound before are within 1.5-fold of each other.

For the compound `CC(=O)N[C@@H](C)c1ccc(O[C@@H]2CCN(c3ccnc(OC4Cc5ccccc5C4)c3)C2)cc1` [Example 9.13], the IC50 was determined as 230 nM. This IC50 is about 2.6-fold higher than that of the compound before.

Consider `CC(=O)N[C@@H](C)c1ccc(O[C@@H]2CCN(c3ccnc(OCC4CCCO4)c3)C2)cc1` (stereo partly shown) [Example 9.48], for which half-maximal inhibition (IC50) required 495 nM.

On to `C[C@H](NC(=O)c1cnn(C)c1)c1ccc(OC2CCN(c3ccnc(OCC4CC4)c3)C2)cc1` (stereo partly shown) [Example 2.77], for which it took 69 nM to reach half-maximal inhibition (IC50). This IC50 is about 7.2-fold lower than that of the compound before.

On to `CC(=O)N[C@@H](C)c1ccc(O[C@@H]2CCN(c3ccnc(OCC(C)C)c3)C2)cc1` [Example 9.2], for which the midpoint of inhibition, the IC50, lay at 41 nM.

For `CC(=O)N[C@@H](C)c1ccc(O[C@@H]2CCN(c3ccc(OCC(F)F)cn3)C2)cc1` [Example 11.1, N—((S)-1-(4-((R)-1-(5-(2,2-Difluoroethoxy)pyridin-2-yl)pyrrolidin-3-yloxy)phenyl)ethyl)acetamide], the IC50 turned out to be 510 nM.

In the case of `C[C@H](NC(=O)N(C)C)c1ccc(OC2CCN(c3ccnc(OCC4CC4)c3)C2)cc1` (stereo partly shown) [Example 1.53], the IC50 amounted to 85 nM.

Compound `CC(=O)N[C@@H](C)c1ccc(OC2CCN(c3cccc(C)n3)C2)cc1` (stereo partly shown) [Example 1.18] had an IC50 of 167 nM.

With `CC(=O)N[C@@H](C)c1ccc(OC2CCN(c3cccc(C(C)(C)C)n3)C2)cc1` (stereo partly shown) [Example 1.59], the half-inhibitory concentration (IC50) was 150 nM.

For the compound `C[C@H](NC(=O)N1CCC1)c1ccc(OC2CCN(c3ccc(OCC4CC4(F)F)cn3)C2)cc1` (stereo partly shown) [Example 3.9], the IC50 turned out to be 200 nM.

`CC(=O)N[C@@H](C)c1ccc(O[C@@H]2CCN(c3ccnc(N(C)C4CCCC4)c3)C2)cc1` [Example 10.9] came in with a 50% inhibitory concentration (IC50) of 849 nM.

The compound `CCCOc1cnc(N2CCC(Oc3ccc([C@H](C)NC(C)=O)cc3)C2)c(F)c1` (stereo partly shown) [Example 1.11] came in with an IC50 of 151 nM.

Compound `CNC(=O)c1cccc(C(=O)N[C@@H](C)c2ccc(OC3CCN(c4ccc(OCC5CC5)cc4)C3)cc2)n1` (stereo partly shown) [Example 2.2] had a concentration for half-maximal inhibition (IC50) of 705 nM.

Compound `C[C@H](NC(=O)C(C)(C)F)c1ccc(OC2CCN(c3ccnc(OCC4CC4)c3)C2)cc1` (stereo partly shown) [Example 2.80] registered an IC50 of 122 nM. Compared with the last compound, the IC50 is about 5.8-fold lower.

The compound `C[C@H](NC(=O)c1cnco1)c1ccc(OC2CCN(c3ccc(OCC4CC4(F)F)cn3)C2)cc1` (stereo partly shown) [Example 2.121] yielded an IC50 of 43 nM.
